Results on one sequence are retold here after patent US12365761B2, “Biodegradable ultra-pH sensitive polymers” (priority 2019, dated 2025).

In this experiment the test system is TC-1 tumor model. The experiment in a line: PSC7A nanovaccine tumor therapy, TC-1 tumor model. The class given is in vivo, C57BL/6 mice. Particulars: TC-1 model, s.c. at tail base, three injections, versus PBS control. An excerpt: The nanovaccine was made by physically mixing tumor specific antigenic peptides and PSC7A nanoparticles. Non-degradable PC7A based nanovaccines were used for comparison. […] Tumor growth was subsequently measured using a digital caliper and calculated as 0.5×length×width^2. Mice were sacrificed when the tumor volumes reached 2000 mm^3.
PSC7A nanoparticles were first produced and then mixed with tumor-specific antigenic peptides. Human papilloma virus (HPV) E6/E7-transfected TC-1 and murine B16-F10 melanoma tumor models were used. […] In the TC-1 model, E7 peptide antigen (E7p, […] (SEQ. No. 1)) was used. […] Most of the animals were lost within 30 days after tumor inoculation.

As to GQAEPDRAHYNIVTFCCKCD [E7p], the tumor growth inhibition result is reported as “marginal tumor growth inhibition”.
